Data as given in patent publication US9750742B2, “Small molecular inhibitors of RAD51 recombinase and methods thereof” (Drexel University, priority 2011, dated 2017).

Columns and labels:
[1] = molecular target: T1, RAD51 (Homo sapiens, UniProt Q06609); assay: DNA binding assay (RAD51-ssDNA complexes); type: biochemical; conditions: B02 25 μM, without NaCl challenge
T1 construct: made in house
T1 sequence (Q06609 1-339): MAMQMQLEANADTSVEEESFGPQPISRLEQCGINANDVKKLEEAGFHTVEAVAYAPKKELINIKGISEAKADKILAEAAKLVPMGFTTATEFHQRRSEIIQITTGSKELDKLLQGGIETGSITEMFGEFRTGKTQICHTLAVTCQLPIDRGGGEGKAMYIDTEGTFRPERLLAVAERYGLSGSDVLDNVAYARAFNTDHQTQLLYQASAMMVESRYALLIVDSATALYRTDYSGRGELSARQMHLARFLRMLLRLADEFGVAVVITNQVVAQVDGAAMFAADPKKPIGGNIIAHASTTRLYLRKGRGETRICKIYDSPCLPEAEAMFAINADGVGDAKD
Method: DNA binding assay was performed as described (Bugreev et al., 2005, J. Biol. Chem. 280:26886-95). […] After 10 min, reactions was mixed with 0.2 vol of loading buffer and loaded on 10% polyacrylamide gels (135 V, 20 mA) in 0.5×TBE buffer containing 45 mM Tris borate (pH 8.3) and 0.25 mM EDTA. Gels were quantified using a Storm 840 PhosphorImager.

[2] = test system: I-SceI; assay: Western blotting, I-SceI expression level; type: cell-based; conditions: with or without B02
Method: Then, both pCBASce-transfected and untransfected cells were trypsinized and resuspended in DMEM supplemented with 10% FBS, 100 units/ml penicillin and 100 μg/ml streptomycin. The suspensions were centrifuged at 1000×g for 5 min at 4° C., the pellets were washed 3 times with cold PBS and then resuspended in lysate buffer containing 50 mM HEPES (pH 7.5), 50 mM NaCl, 5 mM EDTA, 1% Triton X-100, 50 mM NaF, and 10 mM Na4P2O7, 1 mM phenylmethylsulfonyl fluoride (PMSF) and proteinase inhibitor cocktail (Roche Applied Science) for 30 min at 4° C. The cell lysates were centrifuged at 16000×g, for 15 min at 4° C. The supernatants were collected and protein concentrations were determined by the Bradford assay using bovine serum albumin (BSA) as a standard. Equivalent amounts of proteins were loaded on 12% SDS-PAGE gels and after electrophoretic separation were transferred on a PVDF membrane (Osmonics, Inc). […] Immunoblot signals were detected using Enhanced Chemiluminescence (ECL) reagent (Pierce). […]

[3] = test system: pUC19 supercoiled dsDNA; assay: Ethidium bromide displacement assay; type: binding
Method: The fluorescence of the sample was measured using a FlouroMax-3 fluorimeter at an excitation wavelength of 260 nm and an emission wavelength of 546 nm. Then, the small molecule inhibitors were added in increasing concentrations and allowed to equilibrate for 1 min, followed by the fluorescence measurement.

[4] = molecular target: T1, RAD51; assay: Effect on RAD51 oligomerization (gel filtration); conditions: B02 200 μM, RAD51 13.5 μM
Method: The samples were then centrifuged for 15 min at 16,000×g, 4° C. Supernatants were loaded on a Superose 6 10/300 GL column (GE Healthcare) equilibrated with buffer E and eluted with a flow rate of 0.2 ml/min at 4° C. The gel filtration molecular weight marker kit (29-669 kDa, Sigma) was used for column calibration. The 0.3-ml fractions were collected and analyzed by electrophoresis in a 12% SDS-PAGE gel (100 V, 90 min).

## O=c1c2ccccc2nc(/C=C/c2cccnc2)n1Cc1ccccc1 [Compound B02, (E)-3-benzyl-2-(2-(pyridin-3-yl)vinyl)quinazolin-4(3H)-one]
[1]
  loss of filaments: 20%
[2]
  expression of I-SceI protein: did not affect
[3]
  DNA binding, result in words: not to bind DNA
[4]
  RAD51 oligomerization: does not affect RAD51 oligomerization
